Data: patent US20220280543A1, “DDX17 AND NLRC4 TARGETING FOR INFLAMMATORY DISEASES” (University of Virginia Patent Foundation, priority 2019, published 2022)
“Also recorded” adds a separate entry of the source.

Columns and labels:
[1] = test system: RPE degeneration; conditions: intraperitoneal administration; previously reported; cited from earlier work
[2] = test system: NLRP3/NLRC4 complex; test: Biotin-streptavidin pulldown of biotin-labeled NRTIs with NLRC4/NLRP3, immunoblot; format: binding; conditions: immunoblot (FIG. 33)
Procedure: FIG. 33. NRTIs directly bind to NLRP3/NLRC4 complex in a reconstituted system. HEK293 cell were transfected with NLRC4 and NLRP3. Biotin-Labeled NRTIs (D4T, AZT) were added to the HEK cells 4 hours later, and cell pellets were collected for biotin streptavidin pulldown. Binding between NRTIs and NLRC4/NLRP3 was detected by immunoblot. […] The bands of NLRC4 and NLRP3 pulled down with biotinylated NRTI are indicated with black arrows.
Finally, we sought to investigate the mechanism through which NRTIs inhibit NLRC4 inflammasome and asked whether this is NLRP3 dependent. We transfected WT and NLRP3 KO BMDMs with flagellin to examine caspase-1 activation using immunoblot. […] To further confirm the mechanism of action of NRTIs, we investigated whether they directly bind to NLRP3/NLRC4 complex in a reconstituted system. We treated flagellin transfected BMDMs with free and biotin labeled D4T and AZT and pulled down biotin.

[3] = test system: NLRC4 inflammasome; test: Flagellin-induced caspase-1 activation in wild type BMDM pre-treated with NRTIs, immunoblot; format: cell-based, mouse; conditions: NRTI at 100 μM for 1 hour, flagellin transfection 3 μg/ml (FIG. 27)
Procedure: FIG. 27. NRTI block Flagellin induced NLRC4 inflammasome in BMDM. Wild type BMDM cells were pre-treated with exemplary NRTIs (D4T, 3TC) at 100 μM for 1 hour, and then stimulated with flagellin transfection (3 μg/ml). Supernatant and cell lysate were collected for Caspase-1 detection. […] The caspase-1 (p20) bands are indicated with black arrow.
FIG. 28. NRTI (3TC) blocks flagellin-induced NLRC4 inflammasome in a dose dependent manner. Wild type BMDM cell were pre-treated with indicated dose of NRTI (3TC) for 1 hour, and then stimulated with Flagellin transfection (3 μg/ml). Supernatants were collected for Caspase-1 detection. […] The caspase-1 (p20) bands are indicated with black arrow.
FIG. 31. Modified NRTIs (K8, K9) block flagellin-induced NLRC4 inflammasome in BMDM. Wild type BMDM cell were pre-treated with regular NRTI (D4T, 3TC), the modified NRTIs 3-Methyl-3TC (K9) or 2-Ethyl-AZT (K8), or NLRP3 inhibitors (MCC950, CY-09) for 1 hour, and then stimulated with flagellin transfection (3 μg/ml). Supernatants were collected for secreted caspase-1 detection. […] The caspase-1 (p20) bands are indicated with black arrow.
Nucleoside reverse transcriptase inhibitors (NRTIs) are HIV therapeutics that inhibit retrovirus replication. We have previously shown that NRTIs inhibit P2X7-mediated NLRP3 inflammasome activation by an endogenous retroelement Alu RNA (SEQ ID NO: 86). Activation of NLRP3 inflammasome by Alu RNA (SEQ ID NO: 86) causes the death of retinal pigment epithelium (RPE) in geographic atrophy, a severe form of AMD. […] Currently, multiple NLRP3 inflammasome inhibitors such as MCC950, CY09 are available however, there are no inhibitors of NLRC4. So, a need exists to develop inhibitors of NLRC4 inflammasome to study NLRC4 driven diseases. Here, we show for the first time that NRTIs block flagellin induced NLRC4 inflammasome. We pretreated flagellin transfected BMDMs with DT4 and 3TC to examine caspase-1 activation.
NLRC4 oligomerization is another hallmark of inflammasome activation where high-molecular mass NLRC4 protein complexes are assembled. […]

[4] = test system: ASC oligomerization; test: Alu RNA induced ASC oligomerization in human RPE cells after siRNA knockdown; format: cell-based; conditions: 24 hours later Alu RNA 100 pmol (FIG. 25A)
Procedure: (§1) FIGS. 25A and 25B. NLRC4 knockdown blocks Alu RNA (SEQ ID NO: 86) induced ASC oligomerization and RPE degeneration. Human RPE cell treated with siRNA target on NLRC4 (SMARTPOOL siRNA for NLRC4: CAACUGGGCUCCUCUGUAA; SEQ ID NO: 93) and NAIP (SMARTPOOL siRNA for NAIP: GUAAAGAGCUAUAUGGAUA; SEQ ID NO: 94), 24 hours later, treated with Alu RNA (SEQ ID NO: 86 at 100 pmol) FIG. 25A. […] The band of ASC oligomers was indicated by black arrow. […] The hyperdense areas due to the RPE degeneration in fundus images and ZO-1 disorganizations in RPE sheet are indicated by white arrows.
(§2) Next, we asked whether Alu RNA (SEQ ID NO: 86) also triggered NLRC4 inflammasome activation in human RPE cells. We performed immunofluorescence staining experiments to examine whether Alu RNA (SEQ ID NO: 86) can induce NLRC4 speck formation in human RPE cells. We noticed punctate structures resembling specks of NLRC4 in human RPE cells in response to Alu RNA (SEQ ID NO: 86) treatment (FIG. 24A). […] We further investigated downstream events of NLRC4 inflammasome activation by studying NLRC4-induced ASC oligomerization, a critical step involved in caspase-1 cleavage. NLRC4 siRNA, when co-administered with Alu RNA (SEQ ID NO: 86), blocked ASC oligomerization in vitro (FIG. 25A) and RPE degeneration in vivo (FIG. 25B).

[5] = test system: RPE degeneration; test: Alu RNA induced RPE degeneration in mice, fundus images and ZO-1 staining; format: in vivo; conditions: mice, subretinal Alu RNA; fundus and ZO-1 (FIGS. 25B, 26)
Procedure: as §1
FIG. 26. […] Wilde type of C57/B6 mice were intravitreally injected with siRNA target on Ddx17 (siRNA for Ddx17: GGCUAGAUGUGGAAGAUGU; SEQ ID NO: 95), and two days later, Nlrc4^−/−, Naip1-6^−/−, mice and Ddx17 knockdown mice were subretinally injected with Alu RNA (SEQ ID NO: 86). […] The hyperdense areas due to the RPE degeneration in fundus images and ZO-1 disorganizations in RPE sheet are indicated by white arrows.
as §2
We delivered Alu RNA (SEQ ID NO: 86) or Alu RNA (SEQ ID NO: 86)+siDDX17 subretinally in WT or NLRC4 KO or NAIP1-6 KO mice and examined for RPE degeneration using fundus photos and ZO-1 staining as described previously.

[6] = test system: p-NLRC4 and caspase-1; test: Dicer1 knockdown induced inflammasome activation in BMDM, immunoblot; format: cell-based, mouse
Text: FIGS. 20A and 20B. DDX17-NLRC4-NLRP3 are required for Dicer1 knockdown induced inflammasome activation. FIG. 20A. Dicer1 knockdown (siRNA for Dicer 1: GCAGUUGUCCUAAACAGAU; SEQ ID NO: 92) causes increase of p-NLRC4 and caspase-1 activation, which were blocked in Ddx17^−/− iBMDMs. FIG. 20B. Dicer1 knockdown-induced caspase-1 cleavage was impaired in Nlrc4^−/− and Nlrp3^−/− BMDMs. The caspase-1 (p20) bands are indicated with black arrows.
We have previously shown that DICER deficiency mediated accumulation of Alu RNA induces NLRP3 inflammasome activation. So we examined whether DICER knockdown could also induce DDX17-NLRC4-NLRP3 signaling. WT and DDX17 KO BMDMs were transfected with siDICER to examine NLRC4 phosphorylation and caspase-1. […] We then determined phosphorylation of NLRC4 and caspase-1 activation in WT, NLRC4 KO and NLRP3 KO BMDMs after transfection with siDICER or sicontrol.

[7] = test system: IL-1β; test: Alu RNA induced IL-1β release in THP1 cells after siRNA knockdown, ELISA; format: cell-based, human; conditions: siRNA knockdown (FIG. 12B)
Text: (§3) FIGS. 12A and 12B. DDX17 knockdown blocks Alu RNA (SEQ ID NO: 86) induced ASC oligomerization and IL-1β release. FIG. 12A. siRNA mediated DDX17 knockdown (siRNA for DDX17: CCAAUCUGAUGUAUCAGGA; SEQ ID NO: 91), but not Ddx5 (siRNA for DDX5: GGAAAUUACAGUUAGAGGU; SEQ ID NO: 89) in THP1 cells, blocked Alu RNA (SEQ ID NO: 86) induced ASC oligomerization. The band of ASC oligomers were indicated by black arrow. FIG. 12B. siRNA mediated DDX17 knockdown, but not Ddx5 in THP1 cells, blocked Alu RNA (SEQ ID NO: 86) induced IL-1β release.
(§4) To further confirm that DDX17 is the sensor for NLRC4, we investigated caspase-1 cleavage by immunoblotting and IL-1β secretion by ELISA in Alu RNA (SEQ ID NO: 86) or mock treated THP1 cells and DDX17 KO BMDMs respectively.

[8] = test system: ASC oligomerization; test: Alu RNA induced ASC oligomerization in THP1 cells after siRNA knockdown; format: cell-based, human; conditions: siRNA knockdown (FIG. 12A)
Text: as §3, §4

[9] = target: T1, mouse NLR family CARD domain containing 4 (Nlrc4) (mouse, UniProt Q3UP24 1-1024); test: immunofluorescence of endogenous ASC specks and NLRC4 puncta in SINE RNA-transfected BMDMs
T1 construct: Endogenous protein of mouse BMDM / iBMDM
T1 sequence (Q3UP24 whole entry, the tested form may be a part): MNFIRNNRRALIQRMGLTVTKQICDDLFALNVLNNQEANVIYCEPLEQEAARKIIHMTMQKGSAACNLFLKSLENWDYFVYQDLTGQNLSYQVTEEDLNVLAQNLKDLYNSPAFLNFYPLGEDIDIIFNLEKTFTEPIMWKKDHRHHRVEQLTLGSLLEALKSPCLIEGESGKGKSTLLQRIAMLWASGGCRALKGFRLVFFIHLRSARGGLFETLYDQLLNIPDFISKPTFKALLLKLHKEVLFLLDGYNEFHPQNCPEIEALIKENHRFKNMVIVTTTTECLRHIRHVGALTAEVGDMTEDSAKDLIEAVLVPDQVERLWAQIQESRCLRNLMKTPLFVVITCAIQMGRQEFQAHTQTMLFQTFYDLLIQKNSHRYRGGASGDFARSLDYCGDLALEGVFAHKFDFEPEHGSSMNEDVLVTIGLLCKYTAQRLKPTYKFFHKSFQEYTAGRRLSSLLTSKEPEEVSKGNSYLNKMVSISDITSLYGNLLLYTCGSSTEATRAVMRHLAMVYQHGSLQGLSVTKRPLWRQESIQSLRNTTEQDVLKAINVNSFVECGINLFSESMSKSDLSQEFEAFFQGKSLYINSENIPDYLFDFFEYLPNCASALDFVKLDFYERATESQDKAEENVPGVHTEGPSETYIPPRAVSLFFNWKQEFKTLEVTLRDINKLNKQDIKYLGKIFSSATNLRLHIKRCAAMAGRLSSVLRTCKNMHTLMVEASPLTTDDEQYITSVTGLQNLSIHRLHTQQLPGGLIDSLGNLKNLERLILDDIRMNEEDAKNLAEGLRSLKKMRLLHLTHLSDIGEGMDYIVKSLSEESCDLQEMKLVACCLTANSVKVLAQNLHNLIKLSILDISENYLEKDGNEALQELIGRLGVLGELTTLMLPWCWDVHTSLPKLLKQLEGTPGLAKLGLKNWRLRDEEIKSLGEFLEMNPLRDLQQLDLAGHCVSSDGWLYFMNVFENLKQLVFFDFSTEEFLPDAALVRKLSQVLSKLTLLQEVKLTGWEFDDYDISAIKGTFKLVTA
Procedure: FIGS. 3A and 3B. SINE RNA-induced ASC oligomerization is dependent on NLRC4 (BMDM). FIG. 3A. Immunofluorescence images of endogenous ASC specks and NLRC4 puncta in BMDMs after transfected with Alu (SEQ ID NO: 86) or B2 (SEQ ID NO: 88) RNA or transfection reagents only (Mock). […] Moreover, NLRC4 proteins assembled as puncta, and co-resided with ASC specks. FIG. 3B. ASC oligomerizations were evaluated in wild-type and Nlrc4^{-/-} BMDMs through cross-linking and western blot. […] The bands of oligomeric ASC protein were indicated by black arrow.
The activated NLRC4 inflammasome undergoes oligomerization by assembling into high-molecular mass multiprotein complexes. We first investigated in situ assembling of NLRC4 and apoptosis speck (ASC) like protein complexes in response to SINE RNA treatment of BMDMs. Immunofluorescence studies show increased NLRC4 and ASC specks in SINE RNA-treated BMDMs compared to mock-treated cells (FIG. 3A). To assess NLRC4 inflammasome assembly, WT and NLRC4 KO BMDM cells were treated with Alu RNA (SEQ ID NO: 86). Disuccinimidyl suberate (DSS) cross-linked lysates were resolved using denaturing SDS-PAGE to detect ASC oligomers and cell lysates were resolved using native polyacrylamide gel electrophoresis (NATIVE-PAGE) to detect NLRC4 oligomerization. […] NLRC4/ASC oligomerization is essential for the cleavage of pro-caspase-1 into its active form p20 and IL-1β release.

Cc1cn([C@H]2C[C@H](N=[N+]=[N-])[C@@H](CO)O2)c(=O)[nH]c1=O [AZT, 3′-deoxy-3′-azidothymidine 1-[(2R,4S,5S)-4-Azido-5-(hydroxymethyl)oxolan-2-yl]-5-methylpyrimidine-2,4-dione]
Alu RNA induced RPE degeneration in mice [1]: prevented
binding of biotin-labeled NRTI to NLRC4 and NLRP3 [2]: interacted with NLRP3 and NLRC4; also recorded: could directly bind to NLRC4 and NLRP3 protein

Cc1cn([C@H]2C=C[C@@H](CO)O2)c(=O)[nH]c1=O [D4T, 1-[(2R,5S)-5-(hydroxymethyl)-2,5-dihydrofuran-2-yl]-5-methyl-1,2,3,4-tetrahydropyrimidine-2,4-dion]
Alu RNA induced RPE degeneration in mice [1]: prevented
binding of biotin-labeled NRTI to NLRC4 and NLRP3 [2]: interacted with NLRP3 and NLRC4; also recorded: could directly bind to NLRC4 and NLRP3 protein
flagellin induced caspase-1 activation [3]: blocked; also recorded: reduced

NLRC4 siRNA: SMARTPOOL siRNA for NLRC4: CAACUGGGCUCCUCUGUAA; SEQ ID NO: 93 (listed as RNA, chemistry not given here)
Alu RNA induced ASC oligomerization, human RPE cells [4]: blocked
Alu RNA induced ASC oligomerization, human RPE cells ([4]; listed as SMARTPOOL siRNA for NLRC4): reduced
Alu RNA induced RPE degeneration in vivo, effect of siRNA [5]: blocked

siDICER: siRNA for Dicer 1: GCAGUUGUCCUAAACAGAU; SEQ ID NO: 92 (listed as RNA, chemistry not given here)
phosphorylation of NLRC4 after Dicer1 knockdown ([6]; WT BMDMs (FIG. 20A)): induced the phosphorylation of NLRC4
caspase-1 activation after Dicer1 knockdown ([6]; WT BMDMs (FIG. 20B)): induced the activation of caspase-1

siRNA for Ddx17: siRNA for Ddx17: GGCUAGAUGUGGAAGAUGU; SEQ ID NO: 95, injected in mice (chemistry not fully specified)
Alu RNA induced RPE degeneration in vivo, effect of siRNA [5]: blocked
Alu RNA induced IL-1β release, THP1 cells, ELISA [7]: blocked
Alu RNA induced ASC oligomerization, THP1 cells [8]: blocked

B1: mouse apoptosis-associated speck-like protein containing a CARD (ASC) (other, UniProt Q9EPB4 1-193, looked up)
chain: MGRARDAILDALENLSGDELKKFKMKLLTVQLREGYGRIPRGALLQMDAIDLTDKLVSYYLESYGLELTMTVLRDMGLQELAEQLQTTKEESGAVAAAASVPAQSTARTGHFVDQHRQALIARVTEVDGVLDALHGSVLTEGQYQAVRAETTSQDKMRKLFSFVPSWNLTCKDSLLQALKEIHPYLVMDLEQS
notes: Endogenous protein of mouse BMDM
binding result [9]: binds
